Columns and labels:
[1] = biological target: T1, IKACh (Kir3.1 and Kir3.4 protein channels) (Homo sapiens, UniProt P48544+P48549); experiment: Patch clamp block of IKACh current in transfected HEK 293 cells; type: cell-based; conditions: for percentage block of IKACh current (outward component): 1 μM drug, HEK 293 cells transfected with Kir3.1/Kir3.4, barium sensitive current, 5 minute superfusion; for percentage block of IKACh current (FIG. 5, Compound A experiments): same manner and cell lines, concentration not given
T1 construct: expressed in transfected cells; host or cells: HEK 293 (human embryonic kidney cells)
T1 sequence (P48549 1-501): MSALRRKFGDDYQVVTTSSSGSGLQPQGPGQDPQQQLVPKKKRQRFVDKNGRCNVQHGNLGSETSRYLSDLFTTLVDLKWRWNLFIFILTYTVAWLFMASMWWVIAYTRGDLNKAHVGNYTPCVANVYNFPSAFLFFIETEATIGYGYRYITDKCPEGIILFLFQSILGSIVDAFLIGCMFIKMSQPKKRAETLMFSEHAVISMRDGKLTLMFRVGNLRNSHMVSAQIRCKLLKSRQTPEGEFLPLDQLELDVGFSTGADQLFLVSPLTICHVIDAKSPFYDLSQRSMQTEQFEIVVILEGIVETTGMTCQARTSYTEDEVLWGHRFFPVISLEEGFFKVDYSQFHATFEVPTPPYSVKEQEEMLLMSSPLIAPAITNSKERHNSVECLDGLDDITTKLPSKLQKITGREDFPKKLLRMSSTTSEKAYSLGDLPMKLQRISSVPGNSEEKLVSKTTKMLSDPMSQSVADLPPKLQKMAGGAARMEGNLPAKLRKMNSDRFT
T1 sequence (P48544 1-419): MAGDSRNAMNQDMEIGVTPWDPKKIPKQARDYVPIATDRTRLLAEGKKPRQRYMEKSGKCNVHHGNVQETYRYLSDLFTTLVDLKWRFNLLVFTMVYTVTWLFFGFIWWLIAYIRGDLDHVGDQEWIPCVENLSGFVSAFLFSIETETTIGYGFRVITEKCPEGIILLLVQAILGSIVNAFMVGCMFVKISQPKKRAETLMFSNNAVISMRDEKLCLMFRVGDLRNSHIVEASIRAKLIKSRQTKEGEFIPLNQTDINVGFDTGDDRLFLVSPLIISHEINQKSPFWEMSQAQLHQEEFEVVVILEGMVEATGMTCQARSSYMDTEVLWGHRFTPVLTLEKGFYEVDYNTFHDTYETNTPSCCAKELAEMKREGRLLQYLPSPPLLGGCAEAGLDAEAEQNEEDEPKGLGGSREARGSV
Experimental: FIG. 1: In patch clamp experiments, IKACh was measured in human embryonic kidney cells (HEK 293) transfected with IKACh.
The boxed area is the physiologically important outward component of the IKACh current. A magnification is shown. […] The traces are the barium sensitive currents.

[2] = biological target: IKr (hERG protein channel) (Homo sapiens, UniProt Q12809); conditions: 5 min
Chain of IKr (hERG protein channel) (Q12809 whole entry): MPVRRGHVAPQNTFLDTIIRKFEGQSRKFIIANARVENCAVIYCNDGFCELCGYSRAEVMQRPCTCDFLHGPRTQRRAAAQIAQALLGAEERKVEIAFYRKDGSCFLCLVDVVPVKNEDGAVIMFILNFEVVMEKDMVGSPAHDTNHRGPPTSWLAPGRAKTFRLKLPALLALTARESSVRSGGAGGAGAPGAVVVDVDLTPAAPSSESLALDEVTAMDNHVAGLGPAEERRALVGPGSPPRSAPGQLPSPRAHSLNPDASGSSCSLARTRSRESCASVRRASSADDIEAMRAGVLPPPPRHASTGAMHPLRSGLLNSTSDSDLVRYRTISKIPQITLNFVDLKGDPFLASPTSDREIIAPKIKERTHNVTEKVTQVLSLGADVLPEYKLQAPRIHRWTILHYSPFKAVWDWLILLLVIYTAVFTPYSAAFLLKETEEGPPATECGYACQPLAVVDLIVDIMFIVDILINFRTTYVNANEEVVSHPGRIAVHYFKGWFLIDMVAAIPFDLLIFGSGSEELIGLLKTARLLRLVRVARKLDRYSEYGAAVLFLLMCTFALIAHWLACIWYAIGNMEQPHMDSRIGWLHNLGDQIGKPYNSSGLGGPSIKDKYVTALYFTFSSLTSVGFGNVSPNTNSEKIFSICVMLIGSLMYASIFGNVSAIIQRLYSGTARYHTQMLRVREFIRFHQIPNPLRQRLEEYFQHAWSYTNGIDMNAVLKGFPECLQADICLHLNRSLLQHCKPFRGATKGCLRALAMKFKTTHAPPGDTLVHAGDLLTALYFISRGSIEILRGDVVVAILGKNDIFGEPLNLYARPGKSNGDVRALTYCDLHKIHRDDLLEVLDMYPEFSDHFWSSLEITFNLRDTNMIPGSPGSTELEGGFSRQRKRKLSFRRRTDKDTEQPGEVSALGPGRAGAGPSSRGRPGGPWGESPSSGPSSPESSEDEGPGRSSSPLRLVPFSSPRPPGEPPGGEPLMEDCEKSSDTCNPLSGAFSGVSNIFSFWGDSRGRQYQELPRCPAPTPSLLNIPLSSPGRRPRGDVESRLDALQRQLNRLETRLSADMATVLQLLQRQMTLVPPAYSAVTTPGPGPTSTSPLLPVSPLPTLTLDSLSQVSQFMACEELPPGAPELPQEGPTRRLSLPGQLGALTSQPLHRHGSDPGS
Experimental: FIG. 2: IKr current was measured in Chinese hamster ovary cells (CHO) expressing the current.
The arrow denotes the tail current. Tail current is elicited by 3 second step voltage drop from +20 mV to −40 mV. The gray trace is the remaining current after total current block with E4031.
We used the conventional patch clamp method and human embryonic kidney cells transfected with Kir3.1 and Kir3.4 protein channels responsible for IKACh, or Chinese hamster ovary cells transfected with the hERG protein channel responsible for IKr. […] In order to elicit IKACh, the cells were subjected to a voltage protocol consisting of a 2 second ramp from −130 mV to 50 mV, from a holding potential of −40 mV. IKr tail current was elicited by a 3 second voltage drop step from 20 mV to −40 mV. The drugs were superfused over a 5 minute period into the chambers that hold the cells.

[3] = Compound A vs racemic chloroquine

| Molecule | percentage block of IKACh current (outward component) [1] | percentage block of IKACh current (FIG. 5, Compound A experiments) [1, 3] | also measured |
| --- | --- | --- | --- |
| CCN(CC)CCC[C@@H](C)Nc1ccnc2cc(Cl)ccc12 [(R)-chloroquine, reference compound] | less than 13% | – | percentage block of IKACh current (outward component) ([1]; listed as distomer (R)): 14%±9 |
| CCN(CC)CCC[C@H](C)Nc1ccnc2cc(Cl)ccc12 [(S)-chloroquine] | more than 83% | – | percentage block of IKACh current (outward component) ([1]; listed as eutomer (S)): 83%±2 |
| CCN(CC)CCC[C@H](Cc1ccccc1)Nc1ccnc2cc(Cl)ccc12 [Compound A] | – | 110%±2.5 | IKACh block relative to chloroquine, in words [1, 3]: significantly better blocker of IKACh; percentage block of IKr current (FIG. 5, Compound A experiments) [2]: 75%±5.7 |
| chloroquine [racemic chloroquine, reference compound] | – | 52%±11 | – |

Reference: US20170258781A1, “ATRIAL SPECIFIC ANTIARRHYTHMICS FOR USE IN TREATING OR PREVENTING ATRIAL FIBRILLATION” (Tufts Medical Center, Inc., priority 2014, published 2017)
